Earlier results, collected in US20090312435A1, “SUBSTITUTED PHENETHYLAMINES WITH SEROTONINERGIC AND/OR NOREPINEPHRINERGIC ACTIVITY” (AUSPEX PHARMACEUTICALS, INC, priority 2006, published 2009).
Values joined by “and” are separate entries in the source; they are usually repeats but may differ in a detail not shown here. Identical values can stand only once. Like-named read-outs stand apart in the source and are kept apart here.

Structure (SMILES)	half-life (T1/2) (human, in vivo)	half-life (T1/2) (in humans)
CN(C)CC(c1ccc(O)cc1)C1(O)CCCCC1 (centres unmarked) [O-desmethylvenlafaxine]	~11 h	–
COc1ccc(C(CN(C)C)C2(O)CCCCC2)cc1 (racemic) [venlafaxine]	–	~5 h and 3 to 7 h
